Where a SMILES comes first, the peptide text is derived from it. Bridges are numbered along the chain shown (N, C = ends). [ ]: non-standard residue; d: D form. The star is where a group is joined. Ileψ(thiazoline)Cys = CC[C@H](C)[C@H](N)C1=N[C@H](C(=O)*)CS1; dOrn = NCCC[C@@H](N)C(=O)O
system: sigW mutant; experiment: sigW mutant tested for increased sensitivity to chemical insults (zones of inhibition); format: cell-based, Bacillus subtilis; conditions: sigW mutant strain tested for increased sensitivity to a variety of chemical insults
Excerpt: Identification of members of the σ^W regulon allows prediction of the phenotypes likely to be associated with a sigW mutation. A sigW mutant strain is not grossly defective in any of the well-characterized processes associated with post-exponential phase, including sporulation, competence, and protein secretion. It has been previously reported that sigW transcription is not induced by a temperature shift from 37 to 50 degrees C. (Huang et al., 1998) and the same is true for the four tested members of the σ^W regulon (ydbS, yeaA, yxjI, ysdB). Since several members of the σ^W regulon encode enzymes with a predicted detoxification function (FIG. 3), a sigW mutant was tested for increased sensitivity to a variety of chemical insults.

Compound	differences in the zones of inhibition
neomycin	no differences
CCCCCCCCCCCCOS(=O)(=O)[O-].[Na+] [sodium dodecyl sulfate]	no differences
O=C(O)CN(CCN(CC(=O)O)CC(=O)O)CC(=O)O [EDTA]	no differences
polymyxins	no differences
[Na+].[OH-] [NAOH]	no differences
gentamicin sulfate	no differences
C[n+]1ccc(-c2cc[n+](C)cc2)cc1 [methyl viologen]	no differences
O=C(N[C@H](CO)[C@H](O)c1ccc([N+](=O)[O-])cc1)C(Cl)Cl [chloramphenicol]	no differences
OO [hydrogen peroxide]	no differences
[Fe+3] [Fe^3+]	no differences
lysozyme	no differences
OCCS [2-mercaptoethanol]	no differences
[Mn+2] [Mn^2+]	no differences
[Cl-].[Na+] [NaCl]	no differences
nisin	no differences
CC1(C)S[C@@H]2[C@H](NC(=O)[C@H](N)c3ccccc3)C(=O)N2[C@H]1C(=O)O [ampicillin]	no differences
O[C@H](CS)[C@H](O)CS (racemic) [dithiothreitol]	no differences
CC[C@H](C)[C@H](N)C1=N[C@H](C(=O)N[C@@H](CC(C)C)C(=O)N[C@H](CCC(=O)O)C(=O)N[C@H](C(=O)N[C@H]2CCCCNC(=O)[C@H](CC(N)=O)NC(=O)[C@@H](CC(=O)O)NC(=O)[C@H](Cc3cnc[nH]3)NC(=O)[C@@H](Cc3ccccc3)NC(=O)[C@H]([C@@H](C)CC)NC(=O)[C@@H](CCCN)NC2=O)[C@@H](C)CC)CS1 [bacitracin] ({Ileψ(thiazoline)Cys}-L[dE]IK[dOrn]I[dF]H[dD]N; lactam 4-C)	no differences
Cl [HCI]	no differences
CN[C@@H]1[C@H](O)[C@H](NC)[C@H]2O[C@@]3(O)C(=O)C[C@@H](C)O[C@H]3O[C@@H]2[C@H]1O [spectinomycin]	no differences

Source: patent publication US6635475B1, “Bacillus subtilis extracytoplasmic function σ factor” (Cornell Research Foundation, Inc., priority 1999, dated 2003)
